Patent publication US20210308188A1, “CELL CLUSTER INCLUDING OLFACTORY NEURON OR PRECURSOR CELL THEREOF, AND METHOD FOR PRODUCING SAME” (SUMITOMO CHEMICAL COMPANY, LIMITED, priority 2018, published 2021)

What was measured:
[1] = test system: human iPS cell line HC-6 #10; test: Maturation culture of cell clusters in viscous medium (Experiment 16); type: cell-based; settings: IGF-1 20 ng/ml, 10% fetal bovine serum and EC23 100 nM added together to the culture medium; day 45
Experimental: Cell clusters were maturation-cultured in a viscous medium in accordance with the method shown in the upper section of FIG. 30. The viscous medium was prepared with reference to Japanese Patent No. 6176770. Specifically, 3 g of methylcellulose (manufactured by Sigma. Aldrich, Inc., viscosity: 4000 cP, M0512) was weighed, and sterilized by autoclaving in a 500 ml wide-open medium bottle containing an agitator, and then 100 ml of medium was added thereto. As the medium, a 1:1 in volume mixture of F-12+Glutamax medium and IMDM+Glutamax medium supplemented with 5% Knockout Serum Replacement, 10% fetal bovine serum (manufactured by Biosera), 450 μM 1-monothioglycerol, lx Chemically defined lipid concentrate, 50 unit/ml penicillin-50 μg/ml streptomycin, 20 ng/ml FGF-TS, 20 ng/ml EGF, 20 ng/ml IGF-1 (manufactured by R&D Systems), 10 μg/ml Heparin Sodium, 1 μM SB431542, 1 μM K02288, 300 nM CHIR99021, and 100 nM EC23 (retinoic acid signaling pathway-activating substance) was used. The medium bottle containing methylcellulose supplemented with the medium was stirred in a cryogenic chamber overnight using a stirrer corresponding to a high viscosity liquid (manufactured by Asahi Rika Factory. Ltd, AMG-H). […]

[2] = test system: human iPS cell line HC-6 #10; test: Effect of TAK1 inhibitor in cell cluster production (Experiment 15); type: cell-based; settings: 5z-7-oxozeaenol 2 μM from day 3 (step (3)); day 21
Experimental: Human iPS cells (HC-6 #10 cell line, obtained from the Institute of Physical and Chemical Research) were subjected to maintenance culturing and step (a) in the same manner as in Experiment 1. The suspension culturing was started on a 96-well culture plate in the same manner as in Experiment 1, except that the number of cells per well was 9×10^3 cells.
At the start of suspension culturing (day 0 after the start of suspension culturing, start of step (1)), Y27632 (final concentration 20 μM), IWP-2 (final concentration 2 μM), SB-431542 (final concentration 1 μM) and CHIR99021 (final concentration 300 nM) were added to the serum-free medium.
On day 2 after the start of suspension culturing, a serum-free medium being free of Y27632 and containing SB-431542, BMP4, IWP-2 and CHIR99021 was added at 100 μl per well (start of step (2)). BMP4 was added to the medium at 3 nM to be a final concentration in the well of 1.5 nM.
On day 3 after the start of suspension culturing, the medium was half exchanged with a serum-free medium being free of Y27632 and BMP4 and containing IWP-2, SB-431542, FGF2, Heparin Sodium, and CHIR99021. In addition, a TAK1 inhibitor 5z-7-oxozeaenol (manufactured by Cayman Chemical) was added to the medium at 4 μM to be a final concentration in the well of 2 μM (start of step (3a)). […]

Compound | maintenance of olfactory epithelial-like tissues [1] | formation of olfactory epithelium-like tissues on the surface of the cell cluster versus cell cluster produced without the TAK1 inhibitor [2]
CC1(C)CCC(C)(C)c2cc(C#Cc3ccc(C(=O)O)cc3)ccc21 | could further efficiently maintain olfactory epithelial-like tissues | 
IGF: 20 ng/ml IGF-1 (manufactured by R&D Systems) in the viscous medium | could further efficiently maintain olfactory epithelial-like tissues | 
COc1cc(O)c2c(c1)/C=C/C[C@H](O)[C@H](O)C(=O)/C=C\C[C@H](C)OC2=O [TAK1 inhibitor, (3S,5Z,8S,9S,11E)-3,4,9,10-tetrahydro-8,9,16-tri hydroxy-14-methoxy-3-methyl-1H-2-benzoxacyclotetradecin-1,7(8H)-dione] |  | more efficient formation of olfactory epithelium-like tissues
